# Test results taken from US9795647B2, “Compositions and methods for modulating inflammatory potential” (New Chapter Inc., priority 2009, dated 2017).
# Tests used:
# A549 cells = test: Proliferation of A549 nonsmall cell lung cancer cells (overexpress COX-2); type: cell-based, human; details: A549 overexpress COX-2
# Source text: The antitumor efficacy of specifically formulated fish oil 30 diets was studied in human lung cancer A549 xenograft (over expression of COX-2) and H1299 xenograft (lack of COX-2 expression).
# FIG. 17 illustrates the relative effect of WholeMega and two commercial fish oil products to inhibit proliferation of human A549 nonsmall cell lung cancer cells (top figure) and human H1299 nonsmall cell lung cancer cells (bottom figure). A549 cells overexpress COX-2, as many cancer cells are known to do. […] The A549 cells over-express COX-2 which normally results in an over-expression/production of PGE2. When provided with an alternate substrate, however, such as fish oil EPA, the resulting product is PGE3 rather than PGE2. […] Clearly, at least one structural feature unique to the Wholemega composition contributes an additional anti-tumor effect. One possibility is that that other oils in Wholemega (omega-5, omega-7 and omega-9 oils), that are not present in the other two fish oils, contribute to an additional inhibitory effect on the growth of the cancer cells. Another possibility would be the relative fractions of certain oils to one another. Yet another possibility would be the herbal oil component, e.g. SCE rosemary and SCE oregano) contribute an added inhibitory effect on the growth of the cancer cells. […]
# gram-positive bacteria = details: purified cPA (>99%); cited from earlier work
# Selenomonas artemidis = details: only one of 45 compounds surveyed; cited from earlier work
# beta-cell = details: 0.5 mmol/l, medium with 5.5, 11.1 or 33.3 mmol/l glucose, 4 days; cited from earlier work
compound,measurement,setting,value
CCCCC[C@H](O)/C=C/[C@H]1[C@H](O)CC(=O)[C@@H]1C/C=C\CCCC(=O)O [PGE2],effect on proliferation of A549 cells,A549 cells,slightly stimulates proliferation
CC/C=C\C[C@H](O)/C=C/[C@H]1[C@H](O)CC(=O)[C@@H]1C/C=C\CCCC(=O)O [PGE3],effect on proliferation of A549 cells,A549 cells,inhibits proliferation
"CCCCCCCCC/C=C\CCCCC(=O)O [cPA, palmitoleic acid (C16:1delta6, cPA)]",minimal inhibitory concentration (MIC),gram-positive bacteria,10 to 20 µg/mL
"CCCCC=CCCCCCCCC(=O)O [myristoleic acid, 9-tetradecenoic acid]",inhibitory concentration towards S. artemidis,Selenomonas artemidis,< 100 micrograms/ml
CCCCCC/C=C\CCCCCCCC(=O)O [palmitoleic acid],beta-cell DNA fragmentation,beta-cell,did not affect
